Data reported in ChEMBL document CHEMBL1151474, “Replication of Colonic Crohn's Disease Mucosal Escherichia coli Isolates within Macrophages and Their Susceptibility to Antibiotics” (Antimicrob Agents Chemother, 2008).
Converted amounts (≈) assume the structure as drawn. The source made the active and inactive calls. No cut-off for these calls is given here.

Assays:
[1] = system: Escherichia coli; assay: Antibacterial activity against gentamicin-treated internalized Escherichia coli isolate HM605 in mouse J774A1 cells isolated from colonic mucosal biopsies of patient with Crohn's disease assessed as intracellular killing of bacteria at 10% compound Cmax after 3 hrs; format: functional, J774.A1
[2] = system: J774.A1; assay: Cytotoxicity against mouse J774A1 cells assessed as release of adenylate kinase at 100 ug/ml after 3 hrs […] relative to control; format: cell-based; settings: j774.a1, 3 h
[3] = system: Escherichia coli; assay: Antibacterial activity against gentamicin-treated internalized Escherichia coli isolate HM605 in mouse J774A1 cells isolated from colonic mucosal biopsies of patient with Crohn's disease assessed as intracellular killing of bacteria at 0.1 to 100 ug/ml after 24 hrs; format: functional, organism-based; settings: J774.A1
[4] = system: Escherichia coli; assay: Antibacterial activity against extracellular Escherichia coli isolate HM605 isolated from colonic mucosal biopsies of patient with Crohn's disease assessed as colony count at 0.1 to 100 ug/ml after 3 hrs; format: functional, organism-based
[5] = system: Escherichia coli; assay: Antibacterial activity against gentamicin-treated internalized Escherichia coli isolate HM605 in mouse J774A1 cells isolated from colonic mucosal biopsies of patient with Crohn's disease assessed as intracellular killing of bacteria at 0.1 to 100 ug/ml after 3 hrs; format: functional, organism-based; settings: J774.A1
[6] = system: Escherichia coli; assay: Antibacterial activity against gentamicin-treated internalized Escherichia coli isolate HM615 in mouse J774A1 cells isolated from colonic mucosal biopsies of patient with Crohn's disease assessed as intracellular killing of bacteria at 10% compound Cmax after 3 hrs; format: functional, J774.A1
[7] = system: Escherichia coli; assay: Antibacterial activity against gentamicin-treated internalized Escherichia coli isolate LF82 in mouse J774A1 cells isolated from chronic ileal lesions of patient with Crohn's disease assessed as intracellular killing of bacteria at 10% compound Cmax after 3 hrs; format: functional, J774.A1
[8] = Cmax in healthy human at 500 mg administered orally; format: ADME, organism-based; set-up: dose 500 mg, route oral; settings: in vivo, po
[9] = system: Escherichia coli; assay: Antibacterial activity against Escherichia coli isolate HM605 isolated from colonic mucosal biopsies of patient with Crohn's disease assessed as killing of bacteria at 100 ug/ml; format: functional
[10] = system: Escherichia coli; assay: Antibacterial activity against gentamicin-treated internalized Escherichia coli isolate HM605 in mouse J774A1 cells isolated from colonic mucosal biopsies of patient with Crohn's disease assessed as intracellular killing of bacteria at 0.1 to 100 ug/ml after 6 hrs; format: functional, organism-based; settings: J774.A1
[11] = system: Escherichia coli; assay: Antibacterial activity against Escherichia coli ATCC 25922 after 24 hrs by Etest antibiotic concentration gradient method; format: functional, organism-based
[12] = system: Escherichia coli; assay: Antibacterial activity against mucosa-associated Escherichia coli isolates isolated from patients with Crohn's disease by disk diffusion method; format: functional
[13] = system: Escherichia coli; assay: Antibacterial activity against extracellular Escherichia coli isolate HM605 isolated from colonic mucosal biopsies of patient with Crohn's disease at 0.01 to 10 ug/ml after 3 hrs; format: functional, organism-based
[14] = system: Escherichia coli; assay: Antibacterial activity against extracellular Escherichia coli isolate HM605 isolated from colonic mucosal biopsies of patient with Crohn's disease at 0.1 to 100 ug/ml after 3 hrs; format: functional, organism-based
[15] = system: Escherichia coli; assay: Antibacterial activity against gentamicin-treated internalized Escherichia coli isolate HM580 in mouse J774A1 cells isolated from colonic mucosal biopsies of patient with Crohn's disease assessed as intracellular killing of bacteria at 10% compound Cmax after 3 hrs; format: functional, J774.A1
[16] = system: Escherichia coli; assay: Antibacterial activity against gentamicin-treated internalized Escherichia coli isolate HM605 isolated from colonic mucosal biopsies of patient with Crohn's disease in mouse J774A1 cells assessed as intracellular killing of bacteria at 3.2 ug/ml after 3 hrs; format: functional, J774.A1
[17] = system: Escherichia coli; assay: Antibacterial activity against Escherichia coli isolate HM605 isolated from colonic mucosal biopsies of patient with Crohn's disease after 24 hrs by Etest antibiotic concentration gradient method; format: functional; settings: isolate HM605, 24 h
[18] = system: Escherichia coli; assay: Antibacterial activity against Escherichia coli isolate HM605 isolated from colonic mucosal biopsies of patient with Crohn's disease
[19] = system: Escherichia coli; assay: Antibacterial activity against Escherichia coli isolate HM154 isolated from colonic mucosal biopsies of patient with Crohn's disease after 24 hrs by Etest antibiotic concentration gradient method; format: functional; settings: isolate HM154, 24 h
[20] = system: Escherichia coli; assay: Antibacterial activity against Escherichia coli isolates isolated from patients with Crohn's disease at 15 ug/disk by susceptibility testing disk method; format: functional
[21] = system: Escherichia coli; assay: Antibacterial activity Escherichia coli isolate HM413 isolated from ileo-colonic mucosal biopsies of patient with Crohn's disease after 24 hrs by Etest antibiotic concentration gradient method; format: functional; settings: isolate HM413, 24 h
[22] = system: Escherichia coli; assay: Antibacterial activity against mucosa-associated Escherichia coli isolate HM456 isolated from patient with irritable bowel syndrome or sporadic polyps after 24 hrs by Etest antibiotic concentration gradient method; format: functional; settings: isolate HM456, 24 h
[23] = system: Escherichia coli; assay: Antibacterial activity against Escherichia coli isolate HM615 isolated from colonic mucosal biopsies of patient with Crohn's disease after 24 hrs by Etest antibiotic concentration gradient method; format: functional; settings: isolate HM615, 24 h
[24] = system: Escherichia coli; assay: Antibacterial activity Escherichia coli isolate HM419 isolated from ileo-colonic mucosal biopsies of patient with Crohn's disease after 24 hrs by Etest antibiotic concentration gradient method; format: functional; settings: isolate HM419, 24 h
[25] = system: Escherichia coli; assay: Antibacterial activity against Escherichia coli isolate HM95 isolated from ileal mucosal biopsies of patient with Crohn's disease after 24 hrs by Etest antibiotic concentration gradient method; format: functional; settings: isolate HM95, 24 h
[26] = system: Escherichia coli; assay: Antibacterial activity against gentamicin-treated internalized Escherichia coli isolate HM605 isolated from colonic mucosal biopsies of patient with Crohn's disease in mouse J774A1 cells assessed as intracellular killing of bacteria at 0.4 ug/ml after 3 hrs; format: functional, J774.A1
[27] = system: Escherichia coli; assay: Antibacterial activity against mucosa-associated Escherichia coli isolate HM454 isolated from patient with irritable bowel syndrome or sporadic polyps after 24 hrs by Etest antibiotic concentration gradient method; format: functional; settings: isolate HM454, 24 h
[28] = Cmax in patient with Crohn's disease at 500 mg administered orally; format: ADME, organism-based; set-up: dose 500 mg, route oral; settings: human, in vivo, po
[29] = system: Escherichia coli; assay: Antibacterial activity against Escherichia coli isolate HM580 isolated from colonic mucosal biopsies of patient with Crohn's disease after 24 hrs by Etest antibiotic concentration gradient method; format: functional; settings: isolate HM580, 24 h
[30] = system: Escherichia coli; assay: Antibacterial activity against mucosa-associated Escherichia coli isolate HM428 isolated from patient with irritable bowel syndrome or sporadic polyps after 24 hrs by Etest antibiotic concentration gradient method; format: functional; settings: isolate HM428, 24 h
[31] = system: Escherichia coli; assay: Antibacterial activity against Escherichia coli K-12 after 24 hrs by Etest antibiotic concentration gradient method; format: functional; settings: K-12, 24 h
[32] = system: J774.A1; assay: Cytotoxicity against mouse J774A1 cells assessed as macrophage number at 3 ug/ml after 3 hrs by total cell protein assay; format: cell-based; settings: j774.a1, 3 h
[33] = system: Escherichia coli; assay: Antibacterial activity against gentamicin-treated internalized Escherichia coli isolate HM605 isolated from colonic mucosal biopsies of patient with Crohn's disease in mouse J774A1 cells assessed as intracellular killing of bacteria at 3 ug/ml after 3 hrs; format: functional, J774.A1
[34] = system: Escherichia coli; assay: Antibacterial activity against Escherichia coli isolates isolated from patients with Crohn's disease at 5 ug/disk by susceptibility testing disk method; format: functional

Row | Structure (SMILES) | Cmax [8] | MIC [17] | MIC [19] | MIC [21] | MIC [23] | MIC [24] | MIC [25] | MIC [29] | Activity [1] | Activity [2] | Activity [6] | Activity [7] | Activity [12] | Activity [13] | Activity [15] | MBC [18] | MIC [22] | MIC [27] | MIC [30] | further results
1 | O=C(N[C@H](CO)[C@H](O)c1ccc([N+](=O)[O-])cc1)C(Cl)Cl [CHLORAMPHENICOL] | – | – | – | – | – | – | – | – | – | 90% | – | – | 62% | – | – | – | – | – | – | –
2 | CCn1cc(C(=O)O)c(=O)c2ccc(C)nc21 [NALIDIXIC ACID] | – | – | – | – | – | – | – | – | – | 90% | – | – | 100% | – | – | – | – | – | – | –
3 | CC1(C)S[C@@H]2[C@H](NC(=O)Cc3ccccc3)C(=O)N2[C@H]1C(=O)O [PENICILLIN G] | – | – | – | – | – | – | – | – | – | 90% | – | – | 0% | – | – | – | – | – | – | –

Now from value to compound, other results behind:

Row | Cmax [8] | MIC [17] | MIC [19] | MIC [21] | MIC [23] | MIC [24] | MIC [25] | MIC [29] | Structure (SMILES) | Activity [1] | Activity [2] | Activity [6] | Activity [7] | Activity [12] | Activity [13] | Activity [15] | MBC [18] | MIC [22] | MIC [27] | MIC [30] | further results
4 | 3200 ng/mL | > 256 µg/mL | – | – | – | – | – | – | CC1(C)S[C@@H]2[C@H](NC(=O)[C@H](N)c3ccccc3)C(=O)N2[C@H]1C(=O)O [AMPICILLIN] | 20.4% | 90% | 13.8% | 10.9% | 95% | Active | 9.6% | > 100 µg/mL | – | – | – | Activity [3]: inactive; Activity [4]: Active; Activity [5]: inactive; Activity [9]: 99.8%; Activity [10]: inactive; Activity [11]: Active; Activity [14]: Active; Activity [16]: 11.1%
5 | – | 3 µg/mL (≈ 4.01 µM) | ≤ 2 µg/mL | ≤ 2 µg/mL | ≤ 2 µg/mL | ≤ 2 µg/mL | ≤ 2 µg/mL | ≤ 2 µg/mL | CC[C@H]1OC(=O)[C@H](C)[C@@H](O[C@H]2C[C@@](C)(OC)[C@@H](O)[C@H](C)O2)[C@H](C)[C@@H](O[C@@H]2O[C@H](C)C[C@H](N(C)C)[C@H]2O)[C@](C)(O)C[C@@H](C)CN(C)[C@H](C)[C@@H](O)[C@]1(C)O [AZITHROMYCIN] | – | 90% | – | – | – | Active | – | 5 µg/mL (≈ 6.68 µM) | ≤ 2 µg/mL | ≤ 2 µg/mL | ≤ 2 µg/mL | Activity [20]: 78%; Activity [26]: 41%; Cmax [28]: 400 ng/mL
6 | 3000 ng/mL | 16 µg/mL (≈ 21.4 µM) | ≥ 16 µg/mL | ≥ 16 µg/mL | ≥ 16 µg/mL | ≥ 16 µg/mL | ≥ 16 µg/mL | ≥ 16 µg/mL | CC[C@H]1OC(=O)[C@H](C)[C@@H](O[C@H]2C[C@@](C)(OC)[C@@H](O)[C@H](C)O2)[C@H](C)[C@@H](O[C@@H]2O[C@H](C)C[C@H](N(C)C)[C@H]2O)[C@](C)(OC)C[C@@H](C)C(=O)[C@H](C)[C@@H](O)[C@]1(C)O [CLARITHROMYCIN] | 33.5% | 90% | 81.8% | 55.2% | – | Active | 57.5% | 3 µg/mL (≈ 4.01 µM) | ≥ 16 µg/mL | ≥ 16 µg/mL | ≥ 16 µg/mL | MIC [31]: 24 µg/mL (≈ 32.1 µM); Activity [32]: 73.4; Activity [33]: 62.1%; Activity [34]: 0%
